Experimental data published in patent US9598396B2, “Tetrahydrophenanthridinones and tetrahydrocyclopentaquinolinones as PARP and tubulin polymerization inhibitors” (Janssen Pharmaceutica NV, priority 2008, dated 2017).

Tests used:
[1] = target: TANK-2 enzyme (Homo sapiens (Human), UniProt Q9H2K2); assay: In vitro Scintillation Proximity Assay (SPA) for TANK-2 inhibitory activity; assay type: biochemical; conditions: auto-poly(ADP-ribosyl)ation, [3H]-NAD+, Ni flash plates (96 or 384 well)
Description: C.2.In Vitro Scintillation Proximity Assay (SPA) for TANK-2 Inhibitory Activity
Compounds of the present invention were tested in an in vitro assay based on SPA technology with Ni Flash plates (96 or 384 well).
In principle, the assay relies upon SPA technology for the detection of auto-poly(ADP-ribosyl)ation of TANK-2 protein using [^3H]-nicotinamide adenine dinucleotide ([^3H]-NAD^+) as ADP-ribosyl donor.
A stock solution of 100 nM [^3H]-NAD^+/NAD (0.1 mCi/ml, supplier: Perkin Elmer) and 25 μM NAD (Sigma) was made in assay buffer (60 mM Tris/HCl, pH 7.4; 0.9 mM DTT; 6 mM MgCl2). The TANK-2 enzyme was produced as described in EP1238063. 60 μl of assay buffer, together with 1 μl of compound in DMSO, 20 μl of [^3H]-NAD^+/NAD and 20 μl of TANK-2 enzyme (final concentration 8 μg/ml) was added per well into a 96-well Ni-coated flash plate (Perkin Elmer). After incubation of the mixture for 120 minutes at room temperature, the reaction was terminated by adding 60 μl of stopsolution (42.6 mg NAD in 6 ml H2O). The plates were covered with a plate sealer and placed in a TopCountNXT™ (Packard) for scintillation counting. Values were expressed as counts per minute (cpm). For each experiment, controls (containing TANK-2 enzyme and DMSO without compound), a blank incubation (containing DMSO but no TANK-2 enzyme or compound) and samples (containing TANK-2 enzyme and compound dissolved in DMSO) were run in parallel. All compounds tested were dissolved and eventually further diluted in DMSO. In first instance, compounds were tested at a concentration of 10^−5M. […] In each test, the blank value was subtracted from both the control and the sample values. The control sample represented maximal TANK-2 enzyme activity. For each sample, the amount of cpm was expressed as a percentage of the mean cpm value of the controls. […] Herein the effects of test compounds are expressed as pIC50 (the negative log value of the IC50-value). As reference compounds, 3-aminobenzamide and 4-amino-1,8-naphtalimide were included to validate the SPA assay. Herein the assay was described using 96-well plates. In the assay using 384-well plates the same final concentrations were used and volumes were adapted.

[2] = test system: human prostate cancer PC3 cells; assay: Eb1 Comet (microtubule disruption) assay; assay type: cell-based; conditions: 1 hour treatment, LAC = concentration where Eb1 foci absent in at least 50% of treated cells
Text: Example C.6 Eb1 Comet (Microtubule Disruption) Assay
The Eb1 Comet assay relies on the detection of the Eb1 protein at the plus end of polymerizing microtubules (Mimori-Kiyosue, 2000) using indirect immunofluorescence. Disruption of microtubule dynamics through de-polymerization or stabilization results in a de-localization of Eb1 from the growing microtubule ends and this is visualized by the disappearance of Eb1 containing cytoplasmic foci.
Briefly, human prostate cancer PC3 cells obtained from the American Type Culture Collection were grown in 96-well plates (Greiner, cat. no. 655090) in HAM's F12 medium as recommended by the provider (ATCC). The cells were treated for 1 hour at 37° C. with compounds dissolved in DMSO (0.6% final DMSO concentration). The culture medium was then removed by aspiration and the cells were fixed by adding cold methanol (−20 C). After a 15 minutes incubation at −20° C., the cells were washed twice with DPBS (Gibco) containing 0.5% Triton X-100. Mouse Eb1 antibody (BD Transduction Laboratories, cat. no. 610534) was added to the cells (1/250 dilution in DPBS containing 1% BSA) and incubated overnight at room temperature. The antibody was subsequently removed and the cells washed twice with DPBS, 0.5% Triton X-100. Secondary goat anti-mouse antibody conjugated to Alexa 488 fluorescent dye (Molecular Probes) was added at a 1/500 dilution in DPBS, 1% BSA and incubated for 1 hour at 37° C. The cells were washed twice with DPBS, 0.5% Triton X-100 and then DPBS containing 0.5% Triton X-100 and 1/5000 Hoechst 33342 (Molecular Probes) was added. Microscopy based Eb1 foci visualization was carried out using an IN Cell Analyser 1000 (Amersham Biosciences) using a 20× objective. Compound dependent microtubule disruption was visually determined by the disappearance in Eb1 foci. The lowest active concentration (LAC) was determined as the concentration where Eb1 foci were absent in at least 50% of the treated cells. Herein the effects of tested compounds are expressed as pLAC (the negative log value of the LAC value) (see Table 3).

[3] = test system: Human colon carcinoma HCT116 cells; assay: Detection of antiproliferative activity (Alamar Blue assay); assay type: cell-based; conditions: HCT-116, 96 h, 4-day incubation, read-out: Cellular assay HCT116 pIC50 (converted)
Description: Example C.4 Detection of Antiproliferative Activity
Human colon carcinoma HCT116 cells obtained from the ATCC were cultured in McCoy's 5A medium supplemented with 2 mM L-Glutamine, 50 μg/ml gentamicin and 10% heat inactivated fetal calf serum.
Reagents used in the Alamar Blue Assay
Resazurin was purchased from Aldrich (Prod. No. 199303). Potassium ferrocyanide, potassium ferricyanide, KH2PO4 and K2HPO4 were purchased from Sigma (Prod. Nos. P9387, P8131, P5655 and P8281, respectively).
Potassium Phosphate Buffer 0.1 M (PPB) was made as follows: 2.72 gram KH2PO4 and 13.86 gram K2HPO4 were dissolved in 500 ml milli-Q H2O, the pH was adjusted to pH 7.4 and the volume was brought to 1 liter with milli-Q H2O; the buffer was filter sterilised and stored at room temperature. Resazurin stock solution (PPB-A) was prepared fresh by dissolving 45 mg resazurin in 15 ml PBS. 30 mM potassium ferricyanide (PPB-B) was prepared by dissolving 0.987 gram potassium ferricyanide in 100 ml PPB. 30 mM potassium ferrocyanide (PPB-C) was prepared by dissolving 1.266 gram potassium ferrocyanide in 100 ml PPB.
Mixture of PPB-A, PPB-B and PPB-C was prepared by mixing equal volumes of the respective solutions. Resazurin work solution (herein termed “Alamar Blue” solution) was prepared by diluting said mixture 20× (vol/vol) in PPB and filter sterilising; the Alamar Blue solution could be kept at 4° C. for a maximum of 2 weeks.
Procedure of the Alamar Blue Assay
For experiments in 384 wells plates the cells were seeded at a density of 4.5×10^3 cells/ml in Falcon 384-well culture plates (Life Technologies, Merelbeke, Belgium), black with clear bottom, in 45 μl culture medium. Cells were allowed to adhere to plastic for 24 hours. The tested compound was pre-diluted (1/50 in culture medium) and 5 μl pre-diluted compound was added to the wells. Following 4-day incubation, 10 μl of the Alamar Blue solution was added to each well and the cells were further incubated for 4 hours (HCT116) or 24 hours (PC-3) at 37° C. The fluorescence intensity was measured for each well on a Fluorescence plate reader (Fluorskan, Labsystems, 540 nm excitation and 590 nm emission)
The antiproliferative activity was calculated as percentage of remaining viable cells in treated versus control (untreated cells) conditions. Within an experiment, the result for each experimental condition is the mean of 3 replicate wells. When appropriate, the experiments were repeated to establish full concentration-response curves. […] Herein the effects of tested compounds are expressed as pIC50 (the negative log value of the IC50 value) (see Table 3).

[4] = test system: tubulin; assay: Tubulin polymerization assay; assay type: biochemical; conditions: inhibition of polymerization at 20 μM and 5 μM
Description: Example C.5 Polymerization Assay
The tubulin polymerization assay is an adaptation of an assay originally described by Bonne, D. et al. (J. Biol. Chem., 1985, 260:2819-25). The assay kit was purchased from Cytoskeleton, Inc. (catalogue number BK011) and the assay was performed as described by the supplier with the following modifications. The assay was run in a 384-well black Proxiplate (Perkin Elmer) and volumes were adapted accordingly. The reactions were carried out in a final volume of 10 μl. Compounds were added to 25 μl of the reaction mix in 96-well PP plates (Corning) on ice and 10 μl of this mixture was dispensed into duplicates of the 384-well Proxiplates pre-warmed to 37° C. in a Fluoroskan Ascent plate reader (Thermo Scientific). Fluorescence measurements were taken every minute for one hour. The maximum slope of each well was determined (linear regression through 4 consecutive points) and polymerization was calculated as a percentage of polymerization observed in the absence of compound.

Sequence of TANK-2 enzyme (Q9H2K2 whole entry): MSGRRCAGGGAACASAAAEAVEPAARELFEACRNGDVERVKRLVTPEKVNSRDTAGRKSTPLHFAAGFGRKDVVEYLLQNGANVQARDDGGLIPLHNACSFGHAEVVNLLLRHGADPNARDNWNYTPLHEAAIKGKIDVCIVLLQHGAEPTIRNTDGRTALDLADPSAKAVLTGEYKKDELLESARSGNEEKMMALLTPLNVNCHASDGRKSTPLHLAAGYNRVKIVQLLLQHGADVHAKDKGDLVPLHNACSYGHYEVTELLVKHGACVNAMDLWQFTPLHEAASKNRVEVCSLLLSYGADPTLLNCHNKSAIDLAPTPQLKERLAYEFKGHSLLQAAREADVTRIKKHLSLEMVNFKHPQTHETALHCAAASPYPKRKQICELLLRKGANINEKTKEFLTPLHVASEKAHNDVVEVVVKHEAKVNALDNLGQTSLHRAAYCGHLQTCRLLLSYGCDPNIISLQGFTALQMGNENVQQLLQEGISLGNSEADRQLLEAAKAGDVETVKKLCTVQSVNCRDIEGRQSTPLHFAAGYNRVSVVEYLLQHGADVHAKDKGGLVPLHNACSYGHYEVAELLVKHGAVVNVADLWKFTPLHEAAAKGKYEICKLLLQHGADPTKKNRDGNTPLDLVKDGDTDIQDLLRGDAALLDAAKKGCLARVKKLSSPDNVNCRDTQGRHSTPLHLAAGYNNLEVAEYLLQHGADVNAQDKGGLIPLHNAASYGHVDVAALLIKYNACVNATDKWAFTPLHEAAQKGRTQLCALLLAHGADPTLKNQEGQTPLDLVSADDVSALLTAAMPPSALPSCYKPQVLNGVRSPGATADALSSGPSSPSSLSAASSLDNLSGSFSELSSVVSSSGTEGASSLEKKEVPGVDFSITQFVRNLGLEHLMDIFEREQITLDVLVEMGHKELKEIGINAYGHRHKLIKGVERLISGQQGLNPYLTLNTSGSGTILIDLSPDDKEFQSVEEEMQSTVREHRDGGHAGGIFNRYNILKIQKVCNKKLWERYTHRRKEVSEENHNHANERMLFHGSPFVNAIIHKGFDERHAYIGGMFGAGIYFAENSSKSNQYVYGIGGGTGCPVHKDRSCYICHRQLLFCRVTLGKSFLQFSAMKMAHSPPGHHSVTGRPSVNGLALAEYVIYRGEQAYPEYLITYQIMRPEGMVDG

COc1cc(OC)nc(CC(C)(C#N)c2ccc3c4c(c(=O)[nH]c3c2)CCCC4)n1 (stereo not shown) [Co. No. 6]
in vitro SPA assay TANK-2 pIC50 [1]: 7.72
Cellular assay Eb1 pLAC [2]: 8
IC50 [3]: 0.0575 µM
Assay Tubulin Polymerization score [4]: 3 (a compound showing more than 50% inhibition at 5 μM is reported as score 3)
